Test results: US10611759B2, “Glutaminase inhibitors” (Rhizen Pharmaceuticals SA, priority 2014, dated 2020)
Read-outs that look alike come from different tables or passages of the source. Each block holds one compound with its values, some of them ahead of it.

What was measured:
Glutaminase(Brain) = molecular target: T1, Glutaminase(Brain) (Mus musculus, UniProt D3Z7P3); assay: Glutaminase enzyme activity using glutaminase enzyme from mice brain/kidney homogenate (Nessler's reagent, ammonia); format: biochemical; settings: for inhibition at 0.1 µM: read-out: Glutaminase(Brain) activity % inhibition 0.1 μM; for inhibition at 1 µM: read-out: Glutaminase(Brain) activity % inhibition @1 μM
T1 sequence (D3Z7P3 55-674): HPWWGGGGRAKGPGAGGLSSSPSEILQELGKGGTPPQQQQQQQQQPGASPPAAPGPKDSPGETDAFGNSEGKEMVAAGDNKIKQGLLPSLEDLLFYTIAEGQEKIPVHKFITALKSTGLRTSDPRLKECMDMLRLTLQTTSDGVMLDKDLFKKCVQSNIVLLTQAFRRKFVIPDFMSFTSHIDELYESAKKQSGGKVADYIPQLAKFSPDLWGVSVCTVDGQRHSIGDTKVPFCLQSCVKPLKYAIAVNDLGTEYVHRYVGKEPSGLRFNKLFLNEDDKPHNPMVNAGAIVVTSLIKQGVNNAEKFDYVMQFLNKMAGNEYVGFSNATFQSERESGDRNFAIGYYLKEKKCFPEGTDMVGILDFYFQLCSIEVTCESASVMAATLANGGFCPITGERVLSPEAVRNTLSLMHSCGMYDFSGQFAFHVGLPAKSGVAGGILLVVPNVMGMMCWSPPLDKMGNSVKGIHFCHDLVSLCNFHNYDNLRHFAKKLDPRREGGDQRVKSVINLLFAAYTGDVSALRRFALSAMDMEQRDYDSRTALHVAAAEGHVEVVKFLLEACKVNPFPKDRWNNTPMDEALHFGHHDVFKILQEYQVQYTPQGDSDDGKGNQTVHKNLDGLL
Procedure: Assay 3: Determination of Glutaminase Enzyme Activity Using Glutaminase Enzyme from Mice Brain/Kidney
Step 1: Preparation of Tissue Homogenates:
Male Balb/c mice were administered 0.28 M ammonium chloride in drinking water for 7 days. The animals were sacrificed and brain/kidney organs collected on dry ice. […] The tissue was homogenized and supernatants were stored at −80° C. until the enzyme assay was performed.
Aim: Compounds were assessed for their ability to inhibit the enzymatic activity of L-glutaminase present in mice brain/kidney homogenate.
Protocol: The assay was performed using a colorimetric method using Nessler's Reagent by quantifying the amount of ammonia formed as a by product during the enzymatic conversion of L-glutamine to glutamate. In the routine assay, 16 μl of tissue homogenate is added to 33 μl of Tris-Hcl phosphate buffer (pH 8) along with 1 μl of DMSO/test compound containing the desired final concentration and vortexed briefly. 50 μl of 20 mM L-glutamine Tris buffer is added to start the reaction and incubated for 15 minutes at 37° C. The ammonia formed is detected by adding 20 μl of reaction mixture to cold water in a 96 well plate followed by 20 μl of Nessler's reagent. The colour developed is measured at 450 nm. Data Analysis: Activity of the test compound is reported as % inhibition and the data is analyzed using Graphpad Prism (Graphpad software; San Diego Calif.) for IC50 determination.

MDA-MB-231 = assay: In vitro cell proliferation assay (MTT), MDA-MB-231; format: cell-based; settings: Homo sapiens, 72 hours
Procedure: (§1) Assay 4: In Vitro Cell Proliferation Assay in Cancer Cell Lines
(§2) Growth inhibition assays were carried out using 10% FBS supplemented media. Cells were seeded at a concentration of 5000-20,000 cells/well in a 96-well plate. Test compounds at a concentration range from 0.01 to 10000 nM were added after 24 hours. Growth was assessed using the 3-[4,5-dimethylthiazol-2-yl]-2,5-diphenyltetrazolium bromide (MTT) dye reduction test at 0 h (prior to the addition of the test compound) and 72 hours after the addition of test compound. Absorbance was read on a Fluostar Optima (BMG Labtech, Germany) at a wave length of 450 nm. Data were analysed using GraphPad Prism and percent inhibition due to the test compound compared to the control was calculated accordingly.

A549 = assay: In vitro cell proliferation assay (MTT), A549; format: cell-based; settings: Homo sapiens, 72 hours
Procedure: as §1, §2

HCT116 = assay: In vitro cell proliferation assay (MTT), HCT116; format: cell-based; settings: Homo sapiens, HCT-116, 72 hours
Procedure: as §1, §2

Daudi = assay: In vitro cell proliferation assay (MTT), Daudi; format: cell-based; settings: Homo sapiens, 72 hours
Procedure: as §1, §2

Rajii = assay: In vitro cell proliferation assay (MTT), Rajii; format: cell-based; settings: 72 hours
Procedure: as §1, §2

Compound: O=C(Cc1cccc(OC(F)(F)F)c1)Nc1ccc(N2CCCC(c3nnc(NC(=O)Cc4ccccn4)s3)C2)nn1 (centres unmarked) [Example-9, 2-(Pyridin-2-yl)-N-(5-(1-(6-(2-(3-(trifluoromethoxy)phenyl)acetamido)pyridazin-3-yl)piperidin-3-yl)-1,3,4-thiadiazol-2-yl)acetamide]
inhibition at 0.1 µM (Glutaminase(Brain)): 50 to 75%
inhibition at 1 µM (Glutaminase(Brain)): 75 to 100%
GI50 (MDA-MB-231): 100 to 250 nM

Compound: O=C(Cc1cccc(OC(F)(F)F)c1)Nc1ccc(N2CCCC(c3nnc(NC(=O)Cc4cccnc4)s3)C2)cn1 (racemic) [Example 3, (RS)-2-(Pyridin-3-yl)-N-(5-(1-(6-(2-(3-(trifluoromethoxy)phenyl)acetamido)pyridin-3-yl)piperidin-3-yl)-1,3,4-thiadiazol-2-yl)acetamide]
inhibition at 0.1 µM (Glutaminase(Brain); 0.1 μM, mice brain homogenate): 25 to 50%
inhibition at 1 µM (Glutaminase(Brain); 1 μM, mice brain homogenate): 50 to 75%
GI50 (MDA-MB-231): 1000 to 3000 nM

Compound: CS(=O)(=O)Nc1cccc(CC(=O)Nc2nnc(C3CCN(c4ccc(NC(=O)Cc5cccc(OC(F)(F)F)c5)nn4)CC3)s2)c1 [Example-11, 2-(3-(Methylsulfonamido)phenyl)-N-(5-(1-(6-(2-(3-(trifluoromethoxy)phenyl)acetamido)pyridazin-3-yl)piperidin-4-yl)-1,3,4-thiadiazol-2-yl)acetamide]
inhibition at 0.1 µM (Glutaminase(Brain); 0.1 μM, mice brain homogenate): < 25%
inhibition at 1 µM (Glutaminase(Brain); 1 μM, mice brain homogenate): 50 to 75%
GI50 (MDA-MB-231): 250 to 500 nM

Compound: O=C(Cc1ccccc1Cl)Nc1ccc(N2CCC(c3nnc(NC(=O)Cc4ccccn4)s3)CC2)nn1 [Example-12, 2-(2-Chlorophenyl)-N-(6-(4-(5-(2-(pyridin-2-yl)acetamido)-1,3,4-thiadiazol-2-yl)piperidin-1-yl)pyridazin-3-yl)acetamide]
inhibition at 0.1 µM (Glutaminase(Brain); 0.1 μM, mice brain homogenate): 50 to 75%
inhibition at 1 µM (Glutaminase(Brain); 1 μM, mice brain homogenate): 75 to 100%
GI50 (MDA-MB-231): < 100 nM

Compound: O=C(Cc1cccc(OC(F)(F)F)c1)Nc1ccc(N2CCC(c3nnc(NC(=O)Cc4ccccn4)s3)CC2)nn1 [Example-8, 2-(pyridin-2-yl)-N-(5-(1-(6-(2-(3-(trifluoromethoxy)phenyl)acetamido)pyridazin-3-yl)piperidin-4-yl)-1,3,4-thiadiazol-2-yl)acetamide]
inhibition at 0.1 µM (Glutaminase(Brain)): 75 to 100%
inhibition at 1 µM (Glutaminase(Brain)): 75 to 100%
GI50 (A549): 100 to 250 nM
GI50 (HCT116): 250 to 500 nM
GI50 (Daudi): < 100 nM
GI50 (Rajii): < 100 nM

Compound: O=C(Cc1ccccc1F)Nc1ccc(N2CCC(c3nnc(NC(=O)Cc4ccccn4)s3)CC2)nn1 [Example-14, 2-(2-Fluorophenyl)-N-(6-(4-(5-(2-(pyridin-2-yl)acetamido)-1,3,4-thiadiazol-2-yl)piperidin-1-yl)pyridazin-3-yl)acetamide]
inhibition at 0.1 µM (Glutaminase(Brain); 0.1 μM, mice brain homogenate): 75 to 100%
inhibition at 1 µM (Glutaminase(Brain); 1 μM, mice brain homogenate): 75 to 100%
GI50 (MDA-MB-231): < 100 nM

Compound: O=C(Cc1cccc(OC(F)(F)F)c1)Nc1ccc(N2CCC(c3nnc(NC(=O)Cc4cccnc4)s3)CC2)cn1 [Example-4, 2-(Pyridin-3-yl)-N-(5-(1-(6-(2-(3-(trifluoromethoxy)phenyl)acetamido)pyridin-3-yl)piperidin-4-yl)-1,3,4-thiadiazol-2-yl)acetamide]
inhibition at 0.1 µM (Glutaminase(Brain); 0.1 μM, mice brain homogenate): 25 to 50%
inhibition at 1 µM (Glutaminase(Brain); 1 μM, mice brain homogenate): 50 to 75%
GI50 (MDA-MB-231): 250 to 500 nM

Compound: O=C(Cc1ccccn1)Nc1ccc(N2CCCC(c3nnc(NC(=O)Cc4cccc(OC(F)(F)F)c4)s3)C2)cn1 (centres unmarked) [Example-7, 2-(Pyridin-2-yl)-N-(5-(3-(5-(2-(3-(trifluoromethoxy)phenyl)acetamido)-1,3,4-thiadiazol-2-yl)piperidin-1-yl)pyridin-2-yl)acetamide]
inhibition at 0.1 µM (Glutaminase(Brain); 0.1 μM, mice brain homogenate): < 25%
inhibition at 1 µM (Glutaminase(Brain); 1 μM, mice brain homogenate): < 25%
melting point: 151 to 153 °C

Compound: O=C(Cc1cccc(OC(F)(F)F)c1)Nc1ccc(N2CCC(c3nnc(NC(=O)Cc4cccnc4)s3)CC2)nn1 [Example-10, 2-(Pyridin-3-yl)-N-(5-(1-(6-(2-(3-(trifluoromethoxy)phenyl)acetamido)pyridazin-3-yl)piperidin-4-yl)-1,3,4-thiadiazol-2-yl)acetamide]
inhibition at 0.1 µM (Glutaminase(Brain); 0.1 μM, mice brain homogenate): 50 to 75%
inhibition at 1 µM (Glutaminase(Brain); 1 μM, mice brain homogenate): 75 to 100%
GI50 (MDA-MB-231): 100 to 250 nM

Compound: N#Cc1cccc(CC(=O)Nc2nnc(C3CCN(c4ccc(NC(=O)Cc5cccc(OC(F)(F)F)c5)nc4)CC3)s2)c1 [Example-5, 2-(3-Cyanophenyl)-N-(5-(1-(6-(2-(3-(trifluoromethoxy)phenyl)acetamido)pyridin-3-yl)piperidin-4-yl)-1,3,4-thiadiazol-2-yl)acetamide]
inhibition at 0.1 µM (Glutaminase(Brain); 0.1 μM, mice brain homogenate): < 25%
inhibition at 1 µM (Glutaminase(Brain); 1 μM, mice brain homogenate): 25 to 50%

More lines, now with the values ahead:

inhibition at 0.1 µM (Glutaminase(Brain); 0.1 μM, mice brain homogenate): 75 to 100%
inhibition at 1 µM (Glutaminase(Brain); 1 μM, mice brain homogenate): 75 to 100%
GI50 (MDA-MB-231): < 100 nM
Compound: O=C(Cc1cccnc1)Nc1ccc(N2CCC(c3nnc(NC(=O)Cc4cccc(OC(F)(F)F)c4)s3)CC2)nn1 [Example-18, 2-(Pyridin-3-yl)-N-(6-(4-(5-(2-(3-(trifluoromethoxy)phenyl)acetamido)-1,3,4-thiadiazol-2-yl)piperidin-1-yl)pyridazin-3-yl)acetamide]

inhibition at 0.1 µM (Glutaminase(Brain)): 75 to 100%
inhibition at 1 µM (Glutaminase(Brain)): 75 to 100%
GI50 (MDA-MB-231): < 100 nM
Compound: O=C(Cc1ccccn1)Nc1ccc(N2CCC(c3nnc(NC(=O)Cc4cccc(OC(F)(F)F)c4)s3)CC2)nn1 [Example-17, 2-(Pyridin-2-yl)-N-(6-(4-(5-(2-(3-(trifluoromethoxy)phenyl)acetamido)-1,3,4-thiadiazol-2-yl)piperidin-1-yl)pyridazin-3-yl)acetamide]

inhibition at 0.1 µM (Glutaminase(Brain); 0.1 μM, mice brain homogenate): 50 to 75%
inhibition at 1 µM (Glutaminase(Brain); 1 μM, mice brain homogenate): 75 to 100%
GI50 (MDA-MB-231): < 100 nM
Compound: O=C(Cc1cccc(OC(F)(F)F)c1)Nc1ccc(N2CCC(c3nnc(NC(=O)Cc4cnccn4)s3)CC2)nn1 [Example-15, 2-(Pyrazin-2-yl)-N-(5-(1-(6-(2-(3-(trifluoromethoxy)phenyl)acetamido)pyridazin-3-yl)piperidin-4-yl)-1,3,4-thiadiazol-2-yl)acetamide]

inhibition at 0.1 µM (Glutaminase(Brain); 0.1 μM, mice brain homogenate): 25 to 50%
inhibition at 1 µM (Glutaminase(Brain); 1 μM, mice brain homogenate): 50 to 75%
Compound: O=C(Cc1ccccn1)Nc1ccc(N2CCC(c3nnc(NC(=O)Cc4c(F)ccc(F)c4F)s3)CC2)nn1 [Example-20, 2-(Pyridin-2-yl)-N-(6-(4-(5-(2-(2,3,6-trifluorophenyl)acetamido)-1,3,4-thiadiazol-2-yl)piperidin-1-yl)pyridazin-3-yl)acetamide]

inhibition at 0.1 µM (Glutaminase(Brain); 0.1 μM, mice brain homogenate): 50 to 75%
inhibition at 1 µM (Glutaminase(Brain); 1 μM, mice brain homogenate): 75 to 100%
Compound: O=C(Cc1ccccn1)Nc1ccc(N2CCC(c3nnc(NC(=O)Cc4ccc(F)cc4)s3)CC2)nn1 [Example-25, 2-(4-Fluorophenyl)-N-(5-(1-(6-(2-(pyridin-2-yl)acetamido)pyridazin-3-yl)piperidin-4-yl)-1,3,4-thiadiazol-2-yl)acetamide]

inhibition at 0.1 µM (Glutaminase(Brain); 0.1 μM, mice brain homogenate): 50 to 75%
inhibition at 1 µM (Glutaminase(Brain); 1 μM, mice brain homogenate): 75 to 100%
Compound: O=C(Cc1cccnc1)Nc1ccc(N2CCC(c3nnc(NC(=O)Cc4c(F)ccc(F)c4F)s3)CC2)nn1 [Example-19, 2-(Pyridin-3-yl)-N-(6-(4-(5-(2-(2,3,6-trifluorophenyl)acetamido)-1,3,4-thiadiazol-2-yl)piperidin-1-yl)pyridazin-3-yl)acetamide]
